Test results published in PMC5226424 (Biochemistry, 2016).

Biological target: T1, carboxyltransferase from S. aureus (SaCT) (Staphylococcus aureus, UniProt Q2FXM7+Q5HF73)
T1 sequence (Q2FXM7 1-314): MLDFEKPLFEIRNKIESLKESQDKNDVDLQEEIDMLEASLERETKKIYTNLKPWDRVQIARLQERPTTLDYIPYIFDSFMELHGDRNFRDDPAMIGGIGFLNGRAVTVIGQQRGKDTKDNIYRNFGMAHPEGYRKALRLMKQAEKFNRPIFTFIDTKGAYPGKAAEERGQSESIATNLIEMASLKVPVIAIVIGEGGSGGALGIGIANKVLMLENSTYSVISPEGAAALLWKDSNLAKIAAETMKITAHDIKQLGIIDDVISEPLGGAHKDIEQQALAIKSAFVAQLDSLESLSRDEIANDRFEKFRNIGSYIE
T1 sequence (Q5HF73 1-285): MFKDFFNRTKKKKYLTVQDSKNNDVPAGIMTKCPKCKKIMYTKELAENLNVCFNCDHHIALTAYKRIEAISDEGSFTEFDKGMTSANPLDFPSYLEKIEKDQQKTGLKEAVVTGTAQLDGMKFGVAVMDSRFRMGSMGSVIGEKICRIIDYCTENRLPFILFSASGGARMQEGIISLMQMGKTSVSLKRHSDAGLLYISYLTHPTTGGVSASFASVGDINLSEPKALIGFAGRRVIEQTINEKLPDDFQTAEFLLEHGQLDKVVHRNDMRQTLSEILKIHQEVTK
Experiment: coupled citrate synthase / malate dehydrogenase assay at […] nm, reverse direction
Format: biochemical
Conditions: 150 μM malonyl-CoA, 6 mM biocytin, pH 8.0

SMILES: C[C@H]1CC(=O)NC1=O [compound 4, (3S)-Methyl-pyrrolidine-2,5-dione]
- % decrease in activity at 50 nM: 65%
